Assay results reported in patent US7592143B2, “Methods of treating diseases responsive to induction of apoptosis and screening assays” (Cytovia, Inc., priority 2003, dated 2009).
pEC50: −log10 of the molar value.

Legend:
[1] = target: Transferrin Receptors (Homo sapiens, UniProt P02786); assay: Transferrin receptor binding assay of small molecules: inhibition of biotin-GA binding; conditions: 0.75 h; Compounds tested at 20 μM; biotin-GA kept at 1 μM
Method: The assay was run similar as described in Example 38. Wells of a 96-well assay plate were coated with 500 ng of HTR in 100 μl of PBS per well overnight at 4° C. These were washed twice with 200 μl of PBS and incubated with 200 μl of 1% BSA solution in PBS and washed twice with 200 μl of PBS. 100 μl of 1 μM biotin-GA solution in binding buffer (PBS/0.1% BSA/0.1% Tween-20) was added per well and incubated for 45 minutes at room temperature. For competition of binding assays biotin-GA was pre-mixed with indicated compounds at various concentrations. Final concentration of DMSO in binding mixtures was adjusted to 1% v/v. Wells were washed 4 times with 200 μl of binding buffer. 100 μl of 100 ng/ml Eu-labeled streptavidin solution in binding buffer were added per well and incubated for 45 minutes at room temperature. Wells were washed twice with 200 μl of binding buffer and twice with 200 μl of PBS. 100 μl of DELFIA Enhancement Solution were added per well and incubated for 10 minutes at room temperature. Plates were read on a Wallac Victor plate reader (Wallac-PerkinElmer Life Sciences) using delayed fluorescence Eu protocol at default manufacturer's settings.
Coated wells with no competing agent added were used to determine total binding (T). Non-coated wells were used to determine background binding (B). Background binding was consistently lower than 20%. Inhibition of binding was calculated as I=(T−BC)/(T−B)*100%, where BC was a reading corresponding to a well with a competing compound C added.
Other controls included assays of Biotin-GA binding to the wells coated with 500 μg/well of BSA or mouse Immunoglobulin G, the secondary reagent (Eu-labeled streptavidin) alone binding to the wells coated with […].

[2] = tested on: T-47D; assay: Caspase cascade activation and induction of apoptosis in solid tumor cells; type: cell-based, Human; conditions: 48 h incubation; for Caspase activity (Ratio): ratio of net RFU of test compound to control; for pEC50: Homo sapiens, T47D, read-out: Caspase potency EC50; for pEC50 / Caspase potency EC50 (nM): 0.016 to 10 μM
Method: Human breast cancer cell lines T-47D and DLD-1 were grown according to media component mixtures designated by American Type Culture Collection +10% FCS (Invitrogen Corporation), in a 5% CO2-95% humidity incubator at 37° C. T-47D and DLD-1 cells were maintained at a cell density between 50 and 80% confluency at a cell density of 0.1 to 0.6×10^6 cells/mL. Cells were harvested at 600×g and resuspended at 0.65×10^6 cells/mL into appropriate media +10% FCS. An aliquot of 22.5 μL of cells was added to a well of a 384-well microtiter plate containing 2.5 μL of a 10% DMSO in RPMI-1640 media solution containing 0.16 to 100 μM of test compound (0.016 to 10 μM final). An aliquot of 22.5 μL of cells was added to a well of a 384-well microtiter plate containing 2.5 μL of a 10% DMSO in RPMI-1640 media solution without test compound as the control sample. The samples were mixed by agitation and then incubated at 37° C. for 48 h in a 5% CO2-95% humidity incubator. After incubation, the samples were removed from the incubator and 25 μL of a solution containing 14 μM of N-(Ac-DEVD)-N′-ethoxycarbonyl-R110 (SEQ ID NO.: 41) fluorogenic substrate (Cytovia, Inc.; WO99/18856), 20% sucrose (Sigma), 20 mM DTT (Sigma), 200 mM NaCl (Sigma), 40 mM Na PIPES buffer pH 7.2 (Sigma), and 500 μg/mL lysolecithin (Calbiochem) was added. The samples were mixed by agitation and incubated at room temperature. Using a fluorescent plate reader (Model SPECTRAfluor Plus, Tecan), an initial reading (T=0) was made approximately 1-2 min after addition of the substrate solution, employing excitation at 485 nm and emission at 530 nm, to determine the background fluorescence of the control sample. After the 3 h incubation, the samples were read for fluorescence as above (T=3 h).
The Relative Fluorescence Unit values (RFU) were used to calculate the sample readings as follows: RFU(T=3h)−Control RFU(T=0)=Net RFU(T=3h)
The activity of caspase cascade activation was determined by the ratio of the net RFU value for test compound to that of control samples. The EC50 (nM) was determined by a sigmoidal dose-response calculation (Prism 3.0, GraphPad Software Inc.).

[3] = target: T1, soluble human transferrin receptor (shTR) (Homo sapiens, UniProt P02786); assay: Biotin-GA binding to plates coated with soluble human transferrin receptor, Eu-streptavidin detection
T1 construct: soluble human transferrin receptor (shTR); purchased Merck Biosciences, Schwalbach, Germany
T1 sequence (P02786 101-760 limits assumed): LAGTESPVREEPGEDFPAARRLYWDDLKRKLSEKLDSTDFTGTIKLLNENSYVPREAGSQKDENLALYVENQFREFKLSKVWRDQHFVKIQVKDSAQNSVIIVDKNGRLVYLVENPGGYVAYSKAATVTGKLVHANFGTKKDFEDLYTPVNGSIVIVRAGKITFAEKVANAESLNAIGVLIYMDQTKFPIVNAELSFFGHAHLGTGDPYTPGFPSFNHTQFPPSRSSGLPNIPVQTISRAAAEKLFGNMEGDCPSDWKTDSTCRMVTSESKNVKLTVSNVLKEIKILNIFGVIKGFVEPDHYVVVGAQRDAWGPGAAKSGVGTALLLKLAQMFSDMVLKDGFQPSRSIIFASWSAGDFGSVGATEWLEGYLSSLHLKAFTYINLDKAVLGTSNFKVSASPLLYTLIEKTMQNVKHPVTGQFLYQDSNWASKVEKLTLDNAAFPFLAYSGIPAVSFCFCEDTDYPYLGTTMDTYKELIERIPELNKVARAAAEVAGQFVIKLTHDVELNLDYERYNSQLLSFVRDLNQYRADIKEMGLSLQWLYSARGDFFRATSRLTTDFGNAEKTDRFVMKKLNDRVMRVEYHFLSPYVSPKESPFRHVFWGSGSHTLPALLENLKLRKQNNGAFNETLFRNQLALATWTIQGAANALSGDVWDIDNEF
Method: FIG. 1A. […] 96-well plates were coated with soluble human transferrin receptor (shTR) (SEQ ID NO. 1) at 375 ng/well and blocked with Bovine Serum Albumin (BSA). Wells were incubated with increasing concentrations of biotin-GA in binding/washing buffer for 20 min at 30° C. Eu-streptavidin was used for the detection. Amounts of bound Eu-Streptavidin were quantified by measuring time-delayed fluorescence. Confirmed in three independent experiments.
FIG. 1C. […] Separate control wells were probed with biotinylated holo-transferrin (bio-Trn) to control for TR retention and possible denaturation over long incubation times. Independently confirmed in three experiments.
FIG. 1D. […] Binding of Biotin-GA and tritium-GA to Jurkat cells (hatched) or in-vitro TfR-binding (solid) in the presence of 1 μM GA, 50 μg/ml of apo-transferrin or 50 μg/ml of holo-transferrin is shown in this graph. […]
96-well plates were coated with soluble human transferrin receptor (shTR) (Merck Biosciences, Schwalbach, Germany) at 375 ng/well and blocked with Bovine Serum Albumin (BSA). […] Amounts of bound Eu-Streptavidin were quantified after incubation with Enhancement Solution (Perkin-Elmer, Wellesey, Mass.) by measuring time-delayed fluorescence on a Wallac Victor plate reader (Perkin-Elmer, Wellesey, Mass.) according to manufacturer's protocol. […] Kd and competition EC50 values were calculated using PRIZM software. […]

[4] = tested on: Jurkat cells; assay: Cell surface transferrin receptor expression by FACS; type: cell-based; conditions: 5 μM GA for 5 min
Method: FIG. 2B. […] Jurkat cells were treated with holo-transferrin (50 μg/ml) or GA (5 μM) alone for 5 min or pretreat for 5 min with holo-transferrin followed by 5 min GA (5 μM) treatment. Cells were then stained with FITC-conjugated anti-transferrin receptor antibody for 30 minutes at 4° C. After washing, cells were analyzed on a Becton Dickinson FACS Calibur. Data is shown as mean flourescence units (mfu). Confirmed in three independent experiments.
FACS Analysis: For cell surface staining of transferrin receptor, cells were washed with PBS+1% BSA and stained with FITC-conjugated anti-transferrin receptor antibody (RDI, Flanders, N.J.) for 30 minutes at 4° C. After washing, cells were analyzed on a FACS Calibur (BD Biosciences, San Jose, Calif.) using Cellquest software.

[5] = tested on: T47D cells; assay: Transferrin receptor internalization, FITC anti-transferrin receptor immunofluorescence; type: cell-based, human; conditions: 2 μM GA for 10 or 30 min
Method: FIG. 2A. […] T47D cells were treated with DMSO or 2 μM GA for 10 min (panels A and C respectively) and DMSO or 2 μM GA for 30 min (panels B and D, respectively) and further treated with FITC conjugated anti-transferrin receptor for 30 mins at 37° C. The cells were then fixed with methanol at −20° C. for 5 min, washed with PBS and mounted with Vectashield mounting medium. Representative of three independently confirmed experiments.
For detecting internalization of fluorescent transferrin receptor, T47D cells were plated on glass cover slips in a 6-well plate at a density of 3×10^5 cells per well on the day before the experiment. Cells were pretreated with 2 μM GA for 10 min at 37° C. washed with PBS, and then labeled for 30 min with 1 μg/ml FITC-labeled mouse anti-human transferrin receptor (RDI, Flanders, N.J.) at 37° C. The cells were then fixed with methanol at −20° C. for 5 min, washed with PBS and mounted with Vectashield mounting medium (Hard set with DAPI, Vector Laboratories, Inc., Burlingame, Calif.).

Transferrin Receptors, sequence (P02786 whole entry): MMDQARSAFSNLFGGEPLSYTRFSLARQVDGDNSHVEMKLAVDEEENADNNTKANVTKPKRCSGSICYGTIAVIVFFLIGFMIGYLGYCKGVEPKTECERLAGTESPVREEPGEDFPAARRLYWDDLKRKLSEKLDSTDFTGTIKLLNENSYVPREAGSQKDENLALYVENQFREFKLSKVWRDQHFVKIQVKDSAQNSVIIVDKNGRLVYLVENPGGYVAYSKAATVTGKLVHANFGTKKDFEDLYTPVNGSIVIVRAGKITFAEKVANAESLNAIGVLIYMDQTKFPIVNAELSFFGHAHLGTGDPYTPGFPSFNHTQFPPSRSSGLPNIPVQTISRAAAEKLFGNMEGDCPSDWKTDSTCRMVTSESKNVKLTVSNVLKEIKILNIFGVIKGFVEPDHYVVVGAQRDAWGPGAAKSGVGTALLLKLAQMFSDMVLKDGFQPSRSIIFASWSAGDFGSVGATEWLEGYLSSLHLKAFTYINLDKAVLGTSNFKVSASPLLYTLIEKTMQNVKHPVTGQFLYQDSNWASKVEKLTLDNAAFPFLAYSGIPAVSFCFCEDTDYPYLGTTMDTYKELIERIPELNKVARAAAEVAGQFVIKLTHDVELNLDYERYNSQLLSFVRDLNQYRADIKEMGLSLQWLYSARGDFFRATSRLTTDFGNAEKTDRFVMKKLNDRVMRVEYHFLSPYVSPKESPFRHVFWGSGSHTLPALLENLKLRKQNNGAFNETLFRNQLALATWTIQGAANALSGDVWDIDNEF

Row | Structure (SMILES) | inhibition at 20 µM [1] [%] | pEC50 [2] | Caspase potency EC50 (nM) [2] | Caspase activity (Ratio) [2] | Binding to transferrin receptor in vitro (in words) ([3]; shTR 375 ng/well, increasing concentrations of biotin-GA) | Displacement of receptor-bound GA (in words) ([3]; shTR-coated wells incubated with biotin-GA, washed, then incubated with GA) | Transferrin receptor internalization by cell surface receptor expression (in words) [4] | Transferrin receptor internalization (in words) [5]
1 | CC(C)=CCC12OC(C)(C)C3CC(C=C4C(=O)c5ccccc5OC431)C2=O (stereo not shown) [Example 22, 1-(3-Methyl-2-butenyl)-3,3-dimethyl-1,3,3a,4,5,12a-hexahydro-7,13-dioxo-1,5-methano-furo[3,4-d]xanthene] | 51 | 5.40 | – | 9.9 | – | – | – | –
2 | CC(C)=CCC12OC(C)(C)C3CC4(Oc5ccccc5C(=O)C4=CC31)C2=O (stereo not shown) [Example 23, 1-(3-Methyl-2-butenyl)-3,3-dimethyl-1,3,3a,4,4a,11a-hexahydro-10,12-dioxo-1,4a-methano-furo[3,4-b]xanthene] | 59 | 5.43 | – | 14.1 | – | – | – | –
3 | CC(C)=CCC12OC(C)(C)C3CC(C=C4C(=O)C=C(c5ccccc5)OC431)C2=O (stereo not shown) [Example 31, 1-(3-Methyl-2-butenyl)-3,3-dimethyl-1,3,3a,4,5,10a-hexahydro-7,11-dioxo-9-phenyl-1,5-methano-furo[3,4-i]chromene] | 47 | 5.41 | – | 11.4 | – | – | – | –
4 | CC(C)=CCC12OC(C)(C)C3CC4(OC(c5ccccc5)=CC(=O)C4=CC31)C2=O (stereo not shown) [Example 32, 1-(3-Methyl-2-butenyl)-3,3-dimethyl-1,3,3 a,4,4a,9a-hexahydro-8,10-dioxo-6-phenyl-1,4a-methano-furo[3,4-g]chromene] | 61 | 5.51 | – | 10.6 | – | – | – | –
5 | CC(C)=CCC[C@]1(C)C=Cc2c(O)c3c(c(CC=C(C)C)c2O1)O[C@]12C(=C[C@@H]4C[C@H]1C(C)(C)O[C@@]2(C/C=C(/C)C(=O)O)C4=O)C3=O [GA, Gambogic acid] | – | – | – | – | binds transferrin receptor in vitro | can be displaced by active GA derivatives | interferes with transferrin receptor (SEQ ID NO. 1) internalization | interferes with receptor internalization

More lines, main results first:

Row | inhibition at 20 µM [1] [%] | pEC50 [2] | Caspase potency EC50 (nM) [2] | Structure (SMILES) | Caspase activity (Ratio) [2] | Binding to transferrin receptor in vitro (in words) ([3]; shTR 375 ng/well, increasing concentrations of biotin-GA) | Displacement of receptor-bound GA (in words) ([3]; shTR-coated wells incubated with biotin-GA, washed, then incubated with GA) | Transferrin receptor internalization by cell surface receptor expression (in words) [4] | Transferrin receptor internalization (in words) [5]
6 | 52 | 5.08 | – | C=CCC12OCC3CC(C=C4C(=O)c5ccccc5OC431)C2=O (stereo not shown) [Example 17, 1-Allyl-1,3,3a,4,5,12a-hexahydro-7,13-dioxo-1,5-methano-furo[3,4-d]xanthene] | 9.8 | – | – | – | –
7 | 42 | 5.18 | – | C=CCC12OCC3CC4(Oc5ccccc5C(=O)C4=CC31)C2=O (stereo not shown) [Example 18, 1-Allyl-1,3,3a,4,4a,11a-hexahydro-10,12-dioxo-1,4a-methano-furo[3,4-b]xanthene] | 2.9 | – | – | – | –
8 | 0 | – | Inactive | C=CCC12OCC3CC(CC4C(=O)c5ccccc5OC341)C2=O (stereo not shown) [Example 19, 1-allyl-1,3,3a,4,5,6,6a,12a-octahydro-7,13-dioxo-1,5-methano-furo[3,4-d]xanthene] | 1.0 | – | – | – | –
9 | 11 | – | Inactive | C=CCC12C=C(C(=O)c3ccccc3)C3(CC=C)C(COC3(CC=C)C1=O)C2 (stereo not shown) [Example 27, 1,3,7-Triallyl-8-benzoyl-4-oxa-tricyclo[4.3.1.0^3,7]dec-8-en-2-one] | 1.5 | – | – | – | –
10 | 8 | – | Inactive | C=CCC12CC3COC(CC=C)(C1=O)C3(CC=C)C=C2C(=O)c1ccccc1 (stereo not shown) [Example 28, 1,3,7-Triallyl-9-benzoyl-4-oxa-tricyclo[4.3.1.0^3,7]dec-8-en-2-one] | 1.3 | – | – | – | –
